Results reported in publication PMC9604400, “Synthesis, Anticancer and Antitubercular Properties of New Chalcones and Their Nitrogen-Containing Five-Membered Heterocyclic Hybrids Bearing Sulfonamide Moiety” (International Journal of Molecular Sciences, 2022).
pIC50: −log10 of the molar value.

Legend:
[1] = test system: SK-OV-3; assay: NCI-60 screen (SRB), ovarian cancer; details: Homo sapiens; for pIC50: SK-OV-3; for CC50: SK-OV-3, read-out: LC50
[2] = test system: SK-MEL-28; assay: NCI-60 screen (SRB), melanoma; details: Homo sapiens; for pIC50: SK-MEL-28; for CC50: SK-MEL-28, read-out: LC50
[3] = test system: SN12C; assay: NCI-60 screen (SRB), renal cancer; details: Homo sapiens; for CC50: read-out: LC50
[4] = test system: NCI-H322M; assay: NCI-60 screen (SRB), non-small cell lung cancer; type: cell-based; details: Homo sapiens; for pIC50: five-dose screen; for CC50: read-out: LC50
Protocol: All compounds selected by the US National Cancer Institute (NCI) were initially tested at a single dose (10^−5 M) on the full panel of 60 cancer cell lines represented by leukemia, melanoma, lung, colon, central nervous system (CNS), ovarian, kidney, prostate and breast cancer. Only compounds that were able to satisfy the predetermined inhibition criteria against a minimum number of cell lines proceeded to five-dose assays ([…], 0.1 and 0.01 μM).
In these studies, human cancer cell lines were cultured in a RPMI-1640 medium containing 5% fetal bovine serum and 2 mM of L-glutamine. Following the protocol for a typical assay, cells were inoculated into 96-well plates and incubated at 37 °C, 5% CO2, 95% air, and 100% relative humidity for 24 h prior to the addition of the compounds to be tested. After 24 h, two plates of each cell line were fixed in situ with trichloroacetic acid (TCA) to represent a measure of the cell population for each cell line at the time of sample addition (Tz). Compounds were dissolved in DMSO to 400-fold the maximum desired concentration for analysis and subsequently diluted to twice the maximum desired concentration with medium containing 50 μg/mL gentamicin. An additional series of four dilutions at 10-fold concentration was performed to provide a total of five concentrations of the compound plus the control. Aliquots of 100 μL of these dilutions were taken and added to 96-well plates already containing 100 μL of the medium, resulting in the final required concentrations of the sample. The plates were incubated for 48 h at the same conditions. For adherent cells, the assay was terminated with the addition of cold TCA. Cells were fixed in situ by the slow addition of 50 μL of 50% (w/v) cold ATC (final concentration, 10% TCA) and incubated for 60 min at 4 °C. The supernatant was discarded, and the plates were washed five times with tap water and air dried. A quantity of 100 μL of 0.4% (w/v) sulforhodamine B (SRB) solution in 1% acetic acid was added to each well, and each plate was incubated for 10 min at room temperature. Upon completion of staining, unbound pigment was removed by five washes with 1% acetic acid and the plates were air-dried. The stains were solubilized with 10 mM Trizma base and absorbance was recorded on an automated plate reader at a wavelength of 515 nm. Using the absorbance measurements [time zero (Tz), growth control in the absence of the sample and growth test in the presence of the sample at the five concentration levels (Ti)], the percent growth was calculated for each sample at the concentration levels. The percent growth was calculated as: [(Ti − Tz)/(C − Tz)] × 100 for concentrations for which Ti > Tz, and [(Ti − Tz)/Tz] × 100 for concentrations for which Ti < Tz. Two dose-response parameters were calculated for each compound. The 50% growth inhibition (GI50) was calculated from [(Ti − Tz)/(C − Tz)] × 100 = 50, which is the sample concentration at which the net increase in protein is 50% lower in treated cells (as measured by SRB staining) compared to the net increase in protein seen in control cells and the LC50 (sample concentration at which a 50% reduction in protein measured at the end of treatment compared to the beginning), indicating a net loss of cells; calculated from [(Ti − Tz)/Tz] × 100 = −50. Values were calculated for each of these two parameters if the activity level was reached; however, if the effect was not reached or was exceeded, the value for that parameter was expressed as greater or less than the maximum or minimum of the concentration tested.

[5] = test system: SNB-75; assay: NCI-60 screen (SRB), CNS cancer; details: Homo sapiens; for pIC50: SNB-75; for CC50: SNB-75, read-out: LC50
[6] = test system: DU-145; assay: NCI-60 screen (SRB), prostate cancer; details: Homo sapiens; for pIC50: DU-145; for CC50: DU-145, read-out: LC50
[7] = test system: OVCAR-4; assay: NCI-60 screen (SRB), ovarian cancer; details: Homo sapiens; for pIC50: OVCAR-4; for CC50: OVCAR-4, read-out: LC50
[8] = test system: SK-MEL-2; assay: NCI-60 screen (SRB), melanoma; details: for pIC50 / CC50: Homo sapiens; for pIC50: SK-MEL-2; for CC50: SK-MEL-2, read-out: LC50
[9] = test system: MOLT-4; assay: NCI-60 screen (SRB), leukemia; details: Homo sapiens; for pIC50: MOLT-4; for CC50: MOLT-4, read-out: LC50
[10] = test system: TK-10; assay: NCI-60 screen (SRB), renal cancer; details: Homo sapiens; for pIC50: TK-10; for CC50: TK-10, read-out: LC50
[11] = test system: breast cancer cell lines; assay: NCI-60 screen (SRB), breast cancer panel; type: cell-based; details: Homo sapiens, single dose 10 μM, read-out: GI (growth inhibition), range over panel
[12] = test system: KM12; assay: NCI-60 screen (SRB), colon cancer; details: Homo sapiens; for pIC50: KM12; for CC50: KM12, read-out: LC50
[13] = test system: RXF 393; assay: NCI-60 screen (SRB), renal cancer; details: for pIC50 / CC50: Homo sapiens; for pIC50: RXF 393; for CC50: RXF 393, read-out: LC50
[14] = test system: OVCAR-5; assay: NCI-60 screen (SRB), ovarian cancer; details: Homo sapiens; for pIC50: OVCAR-5; for CC50: OVCAR-5, read-out: LC50
[15] = test system: SW-620; assay: NCI-60 screen (SRB), colon cancer; details: for pIC50 / CC50: Homo sapiens; for pIC50: SW-620; for CC50: SW-620, read-out: LC50
[16] = test system: OVCAR-8; assay: NCI-60 screen (SRB), ovarian cancer; details: Homo sapiens; for pIC50: OVCAR-8; for CC50: OVCAR-8, read-out: LC50
[17] = test system: NCI-H226; assay: NCI-60 screen (SRB), non-small cell lung cancer; details: for pIC50 / CC50: Homo sapiens; for pIC50: NCI-H226; for CC50: NCI-H226, read-out: LC50
[18] = test system: MCF7; assay: NCI-60 screen (SRB), breast cancer; details: Homo sapiens; for pIC50: MCF7; for CC50: MCF7, read-out: LC50

Compound | pIC50 [1] | CC50 [1] [µM] | pIC50 [2] | CC50 [2] [µM] | pIC50 [3] | CC50 [3] [µM] | pIC50 [4] | CC50 [4] [µM] | pIC50 [5] | CC50 [5] [µM] | pIC50 [6] | CC50 [6] [µM] | pIC50 [7] | CC50 [7] [µM] | pIC50 [8] | CC50 [8] [µM] | pIC50 [9] | CC50 [9] [µM] | pIC50 [10] | CC50 [10] [µM] | further results
COc1cc(OC)c(S(N)(=O)=O)cc1C(=O)/C=C/c1ccc(Cl)cc1 [Compound 17b, (E)-5-(3-(4-Chlorophenyl)acryloyl)-2,4-dimethoxybenzenesulfonamide] | 5.55 | 35.4 | 5.52 | 33.4 | 5.61 | 60.2 | 5.64 | 38.7 | 5.82 | 6.95 | 5.46 | 42.2 | 5.45 | > 100 | 4.94 | 57.2 | 5.55 | > 100 | 5.54 | 33.4 | inhibition at 10 µM [11]: 73.9 to 100%; pIC50 [12]: 5.74; CC50 [12]: > 100 µM; pIC50 [13]: 5.79; CC50 [13]: 6.89 µM; lethality ([13]; RXF 393, single dose 10 μM): 40.37%; pIC50 [14]: 5.50; CC50 [14]: 39 µM; pIC50 [15]: 5.60; CC50 [15]: 95.9 µM; lethality ([15]; SW-620, single dose 10 μM): 39.92%; pIC50 [16]: 5.52; CC50 [16]: > 100 µM; pIC50 [17]: 5.59; CC50 [17]: > 100 µM; lethality ([17]; NCI-H226, single dose 10 μM): 25.96%; pIC50 [18]: 5.39; CC50 [18]: 40.3 µM
COc1cc(OC)c(S(=O)(=O)N(CCCl)CCCl)cc1C(=O)/C=C/c1cc(OC)c(OC)c(OC)c1 [Compound 18e, (E)-N,N-bis(2-Chloroethyl)-2,4-dimethoxy-5-(3-(3,4,5-trimethoxyphenyl)acryloyl)benzenesulfonamide] | 4.89 | > 100 | 5.45 | 6.88 | 4.89 | > 100 | 5.52 | > 100 | 5.07 | > 100 | 4.83 | > 100 | < 4.00 | > 100 | 5.33 | 27.6 | 5.69 | > 100 | 4.12 | > 100 | lethality ([8]; SK-MEL-2, single dose 10 μM): 94.49%; pIC50 [12]: 5.37; CC50 [12]: 9.4 µM; pIC50 [13]: 5.55; CC50 [13]: 6.44 µM; pIC50 [14]: 5.17; CC50 [14]: > 100 µM; pIC50 [15]: 4.60; CC50 [15]: > 100 µM; pIC50 [16]: < 4.00; CC50 [16]: > 100 µM; pIC50 [17]: 5.58; CC50 [17]: > 100 µM; pIC50 [18]: 5.36; CC50 [18]: 35.5 µM
